{
  "source": "patent US9975881B2",
  "about": "“Compound” (ASTRAZENECA AB, priority 2011, dated 2018)",
  "key": {"[1]": {"test": "Dog half-life (measured), in vivo pharmacokinetics", "conditions": "male, 1 mg/kg; elimination half-life in plasma, intravenous 30 minute infusion, beagle dog, mean of a minimum of two dogs", "excerpt": "The following describes the methods used to obtain in vivo pharmacokinetic parameters in the male beagle dog. It is applicable for use with any compound but may need modification based on such parameters as solubility, assay sensitivity, anticipated clearance and half-life, when the default formulation, dose level or sampling intervals may be inappropriate. The method described here represents a standard approach from which justified and documented modifications can be made.\nA standard dose solution of 1 mg·mL^−1 was prepared. The recommended dose vehicle (if the compound was not sufficiently soluble in isotonic saline) was 10%/o DMSO:90% sterile water or saline with pH adjustment using 1 M HCl or NaOH. […]\nBlood samples (˜1 ml) were taken into EDTA treated sampling tubes and plasma was prepared by centrifugation (3 minutes at 13000 rpm) soon after sample collection. Samples were taken at pre determined times over 24 hours (e.g. 0, 5, 15, 30, 35, 45, 60, 90, 120, 180, 240, 300, 360, 420, 720, 1440 minutes). The concentration of the analyte(s) was quantitatively determined in plasma by mass spectrometry. […]\nTo each of the test samples, dose tests, standards and QCs 100 μL (90 μl for dose tests, standards and QCs) of methanol was added followed by 100 μl of internal standard. […] Aliquots (120 μL) of each sample were transferred into a microtitre plate ready for analysis via HPLC/MS-MS. […]"}, "[2]": {"test": "Human hepatic intrinsic clearance (CLint) from human hepatocyte incubations", "type": "in vitro ADME", "conditions": "cryopreserved human hepatocytes in suspension, 1×10^6 cells/ml, 1 μM compound, no HSA, pH 7.4", "excerpt": "Measurement of Human Hepatic Intrinsic Clearance (CLint)\nFor the majority of drugs, a large component of their plasma clearance is contributed by hepatic metabolism. Intrinsic clearance (CLint) is a measure of the potential of a compound to undergo metabolism and can be related to hepatic clearance in vivo from a consideration of plasma protein binding and liver blood flow. Therefore, CLint may be used as a key parameter in predicting the half-life of a compound in humans. […]\nAn aliquot of cell suspension (0.2 mL) was diluted with 0.2 ml protein-free suspension buffer. […] The cells were then counted (central square only) using an inverted microscope, viable cells being able to exclude the dye and non-viable cells being stained. The percentage of viable cells in the preparation was calculated thus:\nThe concentration of viable cells was calculated: Viable cells ml^−1=Viable cell count×10^4×3×50 […]\nAt appropriate time points (e.g. 5, 15, 30, 45, 60, 75, 90 and 120 min), aliquots (40 μl) were taken out of the incubation mix and added to 3 volumes of methanol to terminate the reactions and denature the hepatocytes. […] The supernatants were transferred to micro titre plates and analysed by HPLC-MSMS using the following method as a suitable starting point: […]"}},
  "data": [
    {"smiles": "CC1CN(S(=O)(=O)Nc2cc(O[C@H](C)[C@@H](O)CO)nc(SCc3ccc(F)cc3)n2)C1", "note": "[Example 1, N-(6-((2R,3S)-3,4-Dihydroxybutan-2-yloxy)-2-(4-fluorobenzylthio)pyrimidin-4-yl)-3-methylazetidine-1-sulfonamide]", "values": [
      {"measurement": "half-life", "setting": "[1]", "result": 3.7, "unit": "h"},
      {"measurement": "hepatocyte CLint at 1 μM", "setting": "[2]", "result": 2.9, "unit": "µL/min/1e6 cells"}
    ]}
  ]
}
